# Measurements: patent publication US5002969A, “Pharmaceutical compositions containing titanocene complexes and use of these complexes as cytostatic agents” (priority 1985, dated 1991)
# What was measured:
# [1] = system: Ehrlich ascites tumor; test: Activity against Ehrlich Ascites Tumor; assay type: in vivo, Female CF1 mice; conditions: single i.p. dose, 24 h after tumor inoculation
# Procedure: Female CF1 mice are each given about 6×10^6 Ehrlich ascites tumor cells by means of intraperitoneal injection and, 24 hours later, a single intraperitoneal dose of substance dose range of 20 to 500 mg/kg) in physiological saline solution (0.4 ml). In each case 5 to 10 animals are tested per dose. If appropriate, the preparation can be buffered to a pH of 4 to 7, for example with sodium bicarbonate or tris-(hydroxymethyl)-aminomethane, in order to avoid local irritation at the injection site. A group of untreated control animals which were injected intraperitoneally with 0.4 ml of physiological saline solution without administration of the substance is also run for each test series.
# The tumor development in the individual dose ranges is evaluated by means of the weight course and survival time. The dose-dependent number of tumor deaths, toxicity deaths and surviving, and the associated percentage increase in the average survival time are determined for each substance.
# [2] = system: ascitic Sarcoma 180; test: Activity against ascitic Sarcoma 180; assay type: in vivo, female NMRI mice; conditions: for Survivors/Animals Treated: day 80; for MST (mean survival time): mean (range)
# Text: Each animal obtained about 10^7 tumor cells.
# Every day occuring deaths were noted.
# [3] = system: B16 Melanoma; test: Activity against B16 Melanoma; assay type: in vivo, female B6 D2 F1 mice; conditions: day 10
# Procedure: (§1) The B16 melanoma and colon 38 carcinoma used were obtained from the NCI Liasion Office, Institut Jules Bordet, Brussels, Belgium and, for propagation, were kept as solid, subcutaneously growing tumor lines on male C57BL/6J mice. For testing, the tumors were transplanted to female B6 D2 F1 mice. All animals were kept under standard conditions (22°-23° C., tap water and altromin food ad libitum, 12-h light-dark rhythm).
# (§2) For tumor transplantation on day 0 of the testing experiments, solid tumors were removed from donor mice, minced with scissors and reduced to small particles. After suspension in twofold volumes of Hank's balanced salt solution, volumes of 0.3 ml were inoculated subcutaneously into the axillary region, resulting in the growth of solitary solid tumors.
# (§3) The test compounds were administered either as a single injection on day 1 or as three injections on days 1, 3 and 5, or as five injections on days 1, 3, 5, 7 and 9. The different doses applied and the animal distribution are recorded in table 4. The substances, dissolved or suspended in a DMSO-saline mixture (1/9=v/v), were always injected intraperitoneally. The concentrations were selected in such a manner that each mouse received a total volume of 0.4 to 0.5 ml. Control animals only obtained one, three or five injections of the DMSO-saline mixture (0.5 ml/animal) without drug addition.
# (§4) The number of deaths was recorded daily. Deaths occuring within 7 days (single injection), 11 days (three injections) or 15 days (five injections) after tumor transplantation were defined as deaths due to substance toxicity.
# (§5) In the case of B16 melonoma, the tumors were removed and weighed on day 10 for the single and three injections or on day 15 for the five injections. Colon 38 carcinomas were always evaluated on day 15 of the experiment.
# [4] = system: Colon 38 Carcinoma; test: Activity against Colon 38 Carcinoma; assay type: in vivo, female B6 D2 F1 mice; conditions: day 15
# Procedure: as §1, §2, §3, §4, §5
# [5] = system: Rectum Adenocarcinoma; test: Activity against heterotransplanted human rectum adenocarcinoma; assay type: in vivo; conditions: 5 × 15 mg/kg; day 25
# Procedure: (§6) The same testing procedure as in the tests with B16 melanoma and colon 38 carcinoma was employed. The test compounds were applied in equivalent and equitoxic doses, subdivided into five injections. The first injection was administered on day 8 (mammary carcinoma), day 10 (adenocarcinoma of rectum and lung) and day 26 (small cell lung carcinoma) of the tumor transplantation. The T/C values were determined 3 days after the last substance injection, i.e., on day 23 (mammary carcinoma), day 25 (adenocarcinoma of rectum and lung) and day 41 (small cell lung carcinoma).
# [6] = system: Lung Adenocarcinoma; test: Activity against heterotransplanted human lung adenocarcinoma; assay type: in vivo; conditions: 5 × 15 mg/kg; day 25
# Procedure: as §6
# [7] = system: Lung Small Cell Carcinoma; test: Activity against heterotransplanted human small cell lung carcinoma; assay type: in vivo; conditions: 5 × 15 mg/kg; day 41
# Procedure: as §6
# [8] = system: Mammary Carcinoma; test: Activity against heterotransplanted human mammary carcinoma; assay type: in vivo, human tumor xenograft tumor xenograft tumor xenograft; conditions: 5 × 15 mg/kg; day 23
# Procedure: as §6
# [9] = system: solid Sarcoma 180; test: Activity against solid Sarcoma 180; conditions: day 9; for Tumor Weight: mean ± SD
# Procedure: The sarcoma 180 used in the present study was obtained from the Deutsche Krebsforschungszentrum (Heidelberg, Germany). It was propagated as an intraperitoneally growing tumor line on female NMRI mice which were kept under standard conditions (altromin food and tap water ad libitum, 12-h dark-light rhythm).
# Antitumor testing was performed against sarcoma 180 in fluid ascitic as well as in solid, subcutaneously growing form. For testing against ascitic or solid sarcoma 180, the ascitic tumor of donor mice was harvested, diluted 1:3 (v:v) with saline and injected either into the peritoneal cavity or, subcutaneously, into the axillary region of female NMRI mice. Each animal obtained about 10^7 tumor cells. The day of tumor transplantation was defined as day 0 of the experiment.
# Before administration of the test compounds, samples corresponding to the applied doses were dissolved in DMSO, filled up with ninefold volumes of saline and applied to mice in volumes of 0.02 ml per g of body weight. The different doses were either given as a single injection on day 1 or as triple injections on days 1, 3 and 5. […] The untreated, tumor-bearing control animals only received injections of the DMSO/saline mixture (0.02 ml/g). Every day occuring deaths were noted. Deaths within 8 days after tumor transplantation were defined as toxic deaths due to substance toxicity. In the case of ascitic sarcoma 180, the parameters evaluated were the values of mean survival time (MST) and of increase in life span (ILS); the latter was calculated by relating the mean survival time of a treated group to that of the corresponding control group expressed as a percentage and by subtracting 100%. The key date for the evaluation of the experiment and for determining the number of surviving (cured) animals was day 80. In the case of solid sarcoma 180, the tumors were removed on day 9 after transplantation and weighted to an accuracy of ±1 mg. From tumor weights of treated and control animals, the T/C ratios were calculated as follows: [formula]
substance,measurement,setting,value
titanocene dichloride [reference compound],Optimal Treating Rate,[1],90-100%
same,Therapeutic Index (LD50/ED90),[1],"3,3"
same,ILS (increase in life span),"[2]; 1 × 40 mg/kg, group of 5",81%
same,Survivors/Animals Treated,"[2]; 1 × 40 mg/kg, group of 5",1/5
same,MST (mean survival time),"[2]; 1 × 40 mg/kg, group of 5","32,0 (18-80) d"
same,ILS (increase in life span),"[2]; 1 × 40 mg/kg, group of 6",32%
same,MST (mean survival time),"[2]; 1 × 40 mg/kg, group of 6","27,3 (20-49) d"
same,ILS (increase in life span),"[2]; 1 × 50 mg/kg, group of 5",184%
same,Survivors/Animals Treated,"[2]; 1 × 50 mg/kg, group of 5",2/5
same,MST (mean survival time),"[2]; 1 × 50 mg/kg, group of 5","50,0 (25-80) d"
same,ILS (increase in life span),"[2]; 1 × 50 mg/kg, group of 6",161%
same,Survivors/Animals Treated,"[2]; 1 × 50 mg/kg, group of 6",3/6
same,MST (mean survival time),"[2]; 1 × 50 mg/kg, group of 6","54,0 (25-80) d"
same,T/C,[3]; 1 × 50 mg/kg i.p.,61%
same,T/C,[3]; 3 × 40 mg/kg i.p.,69%
same,T/C,[3]; 3 × 50 mg/kg i.p.,37%
same,T/C,[4]; 1 × 50 mg/kg i.p.,41%
same,T/C,[4]; 3 × 40 mg/kg i.p.,28%
same,T/C (based on mean relative volume of tumor),[5],38%
same,T/C (based on mean relative volume of tumor),[6],34%
same,T/C (based on mean relative volume of tumor),[7],110%
same,T/C (based on mean relative volume of tumor),[8],49%
same,T/C,[9]; 1 × 40 mg/kg,111%
same,Tumor Weight,[9]; 1 × 40 mg/kg,"1,31 ± 0,24 g"
same,T/C,[9]; 1 × 50 mg/kg,66%
same,Tumor Weight,[9]; 1 × 50 mg/kg,"0,78 ± 0,34 g"
same,T/C,[9]; 3 × 40 mg/kg,58%
same,Tumor Weight,[9]; 3 × 40 mg/kg,"0,75 ± 0,32 g"
same,T/C,[9]; 3 × 50 mg/kg,23%
same,Tumor Weight,[9]; 3 × 50 mg/kg,"0,29 ± 0,14 g"
